What was measured:
RXF 393 = assay: Antitumor activity against human RXF 393 cells assessed as cell growth inhibition at 10 uM incubated for 48 hrs by sulforhodamine B assay; assay type: functional; details: read-out: GI
OVCAR-4 = assay: Antitumor activity against human OVCAR-4 cells assessed as cell growth inhibition at 10 uM incubated for 48 hrs by sulforhodamine B assay; assay type: functional; details: read-out: GI
SNB-75 = assay: Antitumor activity against human SNB-75 cells assessed as cell growth inhibition at 10 uM incubated for 48 hrs by sulforhodamine B assay; assay type: functional; details: read-out: GI
SN12C = assay: Antitumor activity against human SN12C cells assessed as cell growth inhibition at 10 uM incubated for 48 hrs by sulforhodamine B assay; assay type: functional; details: read-out: GI
HCT-15 = assay: Antitumor activity against human HCT15 cells assessed as cell growth inhibition at 10 uM incubated for 48 hrs by sulforhodamine B assay; assay type: functional; details: read-out: GI
MDA-MB-231 = assay: Antitumor activity against human MDA-MB-231/ATCC cells assessed as cell growth inhibition at 10 uM incubated for 48 hrs by sulforhodamine B assay; assay type: functional; details: read-out: GI
EKVX = assay: Antitumor activity against human EKVX cells assessed as cell growth inhibition at 10 uM incubated for 48 hrs by sulforhodamine B assay; assay type: functional; details: read-out: GI
U-251 = assay: Antitumor activity against human U251 cells assessed as cell growth inhibition at 10 uM incubated for 48 hrs by sulforhodamine B assay; assay type: functional; details: read-out: GI
PC-3 = assay: Antitumor activity against human PC-3 cells assessed as cell growth inhibition at 10 uM incubated for 48 hrs by sulforhodamine B assay; assay type: functional; details: read-out: GI
IGROV-1 = assay: Antitumor activity against human IGROV1 cells assessed as cell growth inhibition at 10 uM incubated for 48 hrs by sulforhodamine B assay; assay type: functional; details: read-out: GI
CCRF-CEM = assay: Antitumor activity against human CCRF-CEM cells assessed as cell growth inhibition at 10 uM incubated for 48 hrs by sulforhodamine B assay; assay type: functional; details: read-out: GI
SW-620 = assay: Antitumor activity against human SW620 cells assessed as cell growth inhibition at 10 uM incubated for 48 hrs by sulforhodamine B assay; details: SW-620, 48 h, read-out: GI
OVCAR-3 = assay: Antitumor activity against human OVCAR-3 cells assessed as cell growth inhibition at 10 uM incubated for 48 hrs by sulforhodamine B assay; assay type: functional; details: read-out: GI
MDA-MB-468 = assay: Antitumor activity against human MDA-MB-468 cells assessed as cell growth inhibition at 10 uM incubated for 48 hrs by sulforhodamine B assay; assay type: functional; details: read-out: GI
NCI-H522 = assay: Antitumor activity against human NCI-H522 cells assessed as cell growth inhibition at 10 uM incubated for 48 hrs by sulforhodamine B assay; assay type: functional; details: read-out: GI
SK-OV-3 = assay: Antitumor activity against human SK-OV-3 cells assessed as cell growth inhibition at 10 uM incubated for 48 hrs by sulforhodamine B assay; assay type: functional; details: read-out: GI
COLO 205 = assay: Antitumor activity against human COLO205 cells assessed as cell growth inhibition at 10 uM incubated for 48 hrs by sulforhodamine B assay; assay type: functional; details: read-out: GI
UACC-62 = assay: Antitumor activity against human UACC-62 cells assessed as cell growth inhibition at 10 uM incubated for 48 hrs by sulforhodamine B assay; assay type: functional; details: read-out: GI
MCF7 = assay: Antitumor activity against human MCF7 cells assessed as cell growth inhibition at 10 uM incubated for 48 hrs by sulforhodamine B assay; assay type: functional; details: read-out: GI
HT-29 = assay: Antitumor activity against human HT-29 cells assessed as cell growth inhibition at 10 uM incubated for 48 hrs by sulforhodamine B assay; assay type: functional; details: read-out: GI
HOP-92 = assay: Antitumor activity against human HOP92 cells assessed as cell growth inhibition at 10 uM incubated for 48 hrs by sulforhodamine B assay; assay type: functional; details: read-out: GI
Malme-3M = assay: Antitumor activity against human MALME-3M cells assessed as cell growth inhibition at 10 uM incubated for 48 hrs by sulforhodamine B assay; assay type: functional; details: read-out: GI
KM12 = assay: Antitumor activity against human KM12 cells assessed as cell growth inhibition at 10 uM incubated for 48 hrs by sulforhodamine B assay; assay type: functional; details: read-out: GI
NCI-H226 = assay: Antitumor activity against human NCI-H226 assessed as cell growth inhibition at 10 uM incubated for 48 hrs by sulforhodamine B assay; assay type: functional; details: read-out: GI
Hs-578T = assay: Antitumor activity against human HS 578T cells assessed as cell growth inhibition at 10 uM incubated for 48 hrs by sulforhodamine B assay; assay type: functional; details: read-out: GI
K562 = assay: Antitumor activity against human K562 cells assessed as cell growth inhibition at 10 uM incubated for 48 hrs by sulforhodamine B assay; assay type: functional; details: read-out: GI
NCI/ADR-RES = assay: Antitumor activity against human NCI/ADR-RES cells assessed as cell growth inhibition at 10 uM incubated for 48 hrs by sulforhodamine B assay; assay type: functional; details: read-out: GI
786-0 = assay: Antitumor activity against human 786-0 cells assessed as cell growth inhibition at 10 uM incubated for 48 hrs by sulforhodamine B assay; assay type: functional; details: read-out: GI
RPMI-8226 = assay: Antitumor activity against human RPMI8226 cells assessed as cell growth inhibition at 10 uM incubated for 48 hrs by sulforhodamine B assay; assay type: functional; details: read-out: GI
ACHN = assay: Antitumor activity against human ACHN cells assessed as cell growth inhibition at 10 uM incubated for 48 hrs by sulforhodamine B assay; assay type: functional; details: read-out: GI
NCI-H460 = assay: Antitumor activity against human NCI-H460 assessed as cell growth inhibition at 10 uM incubated for 48 hrs by sulforhodamine B assay; assay type: functional; details: read-out: GI
HL-60(TB) = assay: Antitumor activity against human HL-60(TB) cells assessed as cell growth inhibition at 10 uM incubated for 48 hrs by sulforhodamine B assay; assay type: functional; details: read-out: GI
LOX IMVI = assay: Antitumor activity against human LOX IMVI cells assessed as cell growth inhibition at 10 uM incubated for 48 hrs by sulforhodamine B assay; assay type: functional; details: read-out: GI
M14 = assay: Antitumor activity against human M14 cells assessed as cell growth inhibition at 10 uM incubated for 48 hrs by sulforhodamine B assay; assay type: functional; details: read-out: GI
SF-295 = assay: Antitumor activity against human SF295 cells assessed as cell growth inhibition at 10 uM incubated for 48 hrs by sulforhodamine B assay; assay type: functional; details: read-out: GI
MOLT-4 = assay: Antitumor activity against human MOLT4 cells assessed as cell growth inhibition at 10 uM incubated for 48 hrs by sulforhodamine B assay; assay type: functional; details: read-out: GI
SF-268 = assay: Antitumor activity against human SF268 cells assessed as cell growth inhibition at 10 uM incubated for 48 hrs by sulforhodamine B assay; assay type: functional; details: read-out: GI
HCT-116 = assay: Antitumor activity against human HCT116 cells assessed as cell growth inhibition at 10 uM incubated for 48 hrs by sulforhodamine B assay; assay type: functional; details: read-out: GI
SK-MEL-28 = assay: Antitumor activity against human SK-MEL-28 cells assessed as cell growth inhibition at 10 uM incubated for 48 hrs by sulforhodamine B assay; assay type: functional; details: read-out: GI
SNB-19 = assay: Antitumor activity against human SNB-19 cells assessed as cell growth inhibition at 10 uM incubated for 48 hrs by sulforhodamine B assay; assay type: functional; details: read-out: GI
BT-549 = assay: Antitumor activity against human BT-549 cells assessed as cell growth inhibition at 10 uM incubated for 48 hrs by sulforhodamine B assay; assay type: functional; details: read-out: GI
UO-31 = assay: Antitumor activity against human UO-31 cells assessed as cell growth inhibition at 10 uM incubated for 48 hrs by sulforhodamine B assay; assay type: functional; details: read-out: GI
NCI-H23 = assay: Antitumor activity against human NCI-H23 cells assessed as cell growth inhibition at 10 uM incubated for 48 hrs by sulforhodamine B assay; assay type: functional; details: read-out: GI
MDA-MB-435 = assay: Antitumor activity against human MDA-MB-435 cells assessed as cell growth inhibition at 10 uM incubated for 48 hrs by sulforhodamine B assay; assay type: functional; details: read-out: GI
OVCAR-8 = assay: Antitumor activity against human OVCAR-8 cells assessed as cell growth inhibition at 10 uM incubated for 48 hrs by sulforhodamine B assay; assay type: functional; details: read-out: GI
A498 = assay: Antitumor activity against human A498 cells assessed as cell growth inhibition at 10 uM incubated for 48 hrs by sulforhodamine B assay; assay type: functional; details: read-out: GI
HCC 2998 = assay: Antitumor activity against human HCC2998 cells assessed as cell growth inhibition at 10 uM incubated for 48 hrs by sulforhodamine B assay; assay type: functional; details: read-out: GI
SR = assay: Antitumor activity against human SR cells assessed as cell growth inhibition at 10 uM incubated for 48 hrs by sulforhodamine B assay; assay type: functional; details: read-out: GI

SMILES: CCN(CC)c1ccc(-c2nc3c4ccccc4c4ccccc4c3o2)c(O)c1
- inhibition of growth at 10 µM (RXF 393): 16.6%
- inhibition of growth at 10 µM (OVCAR-4): < 10%
- inhibition of growth at 10 µM (SNB-75): < 10%
- inhibition of growth at 10 µM (SN12C): < 10%
- inhibition of growth at 10 µM (HCT-15): 65.1%
- inhibition of growth at 10 µM (MDA-MB-231): 35.2%
- inhibition of growth at 10 µM (EKVX): 20.2%
- inhibition of growth at 10 µM (U-251): 15.6%
- inhibition of growth at 10 µM (PC-3): 20.3%
- inhibition of growth at 10 µM (IGROV-1): 19.2%
- inhibition of growth at 10 µM (CCRF-CEM): 41.4%
- inhibition of growth at 10 µM (SW-620): 31.4%
- inhibition of growth at 10 µM (OVCAR-3): 10.3%
- inhibition of growth at 10 µM (MDA-MB-468): 15.8%
- inhibition of growth at 10 µM (NCI-H522): 19.8%
- inhibition of growth at 10 µM (SK-OV-3): < 10%
- inhibition of growth at 10 µM (COLO 205): 12.8%
- inhibition of growth at 10 µM (UACC-62): 11.2%
- inhibition of growth at 10 µM (MCF7): 43.2%
- inhibition of growth at 10 µM (HT-29): 64.3%
- inhibition of growth at 10 µM (HOP-92): 11%
- inhibition of growth at 10 µM (Malme-3M): < 10%
- inhibition of growth at 10 µM (KM12): 55.6%
- inhibition of growth at 10 µM (NCI-H226): < 10%
- inhibition of growth at 10 µM (Hs-578T): 10%
- inhibition of growth at 10 µM (K562): 79.7%
- inhibition of growth at 10 µM (NCI/ADR-RES): 11%
- inhibition of growth at 10 µM (786-0): 12.2%
- inhibition of growth at 10 µM (RPMI-8226): 44.6%
- inhibition of growth at 10 µM (ACHN): 23.1%
- inhibition of growth at 10 µM (NCI-H460): 15%
- inhibition of growth at 10 µM (HL-60(TB)): 31.4%
- inhibition of growth at 10 µM (LOX IMVI): 75.3%
- inhibition of growth at 10 µM (M14): 12.4%
- inhibition of growth at 10 µM (SF-295): < 10%
- inhibition of growth at 10 µM (MOLT-4): 39%
- inhibition of growth at 10 µM (SF-268): 12%
- inhibition of growth at 10 µM (HCT-116): 16.6%
- inhibition of growth at 10 µM (SK-MEL-28): < 10%
- inhibition of growth at 10 µM (SNB-19): < 10%
- inhibition of growth at 10 µM (BT-549): < 10%
- inhibition of growth at 10 µM (UO-31): 35.2%
- inhibition of growth at 10 µM (NCI-H23): 13.5%
- inhibition of growth at 10 µM (MDA-MB-435): < 10%
- inhibition of growth at 10 µM (OVCAR-8): 15%
- inhibition of growth at 10 µM (A498): < 10%
- inhibition of growth at 10 µM (HCC 2998): 18.7%
- inhibition of growth at 10 µM (SR): 72.4%

— ChEMBL document CHEMBL4665624, “Synthesis of 5-(4-(1H-phenanthro[9,10-d]imidazol-2-yl)benzylidene)thiazolidine-2,4-dione as promising DNA and serum albumin-binding agents and evaluation of antitumor activity” (Eur J Med Chem, 2019)
